Data as given in patent US10495630B2, “Methods for the determination of compounds or compositions for the treatment of lipofuscin related diseases and compounds or compositions” (KATAIRO GMBH, priority 2014, dated 2019).
Where two headings read alike, the source gives them in different places.

Columns and labels:
Abca4 (−/−) mice [1] = assay: A2E concentration in eyes of Abca4 (−/−) mice after intravitreal injection, HPLCMSMS; format: in vivo; conditions: one week after injection; for response vs control in vivo at 20000 µg/mL / response vs control in vivo at 40000 µg/mL: Mus musculus, 168 h, read-out: % of A2E relative to age matched untreated
From the text: […] […] The left eye was not treated and maintained as a control. Untreated eyes of age-matched mice lacking the Abca4 transporter were an additional control.
The concentration in each treated eye was then expressed as a percentage of the average concentration in all untreated eyes in the mice of the same age.
The left eye was not treated and maintained as a control. Untreated eyes of age-matched mice lacking the Abca4 transporter were an additional control.
The left eye was not treated and maintained as a control. Untreated eyes of age-matched mice lacking the Abca4 transporter were an additional control. […] Tryptophan is capable of absorbing and re-radiating light energy, as is riboflavin.
Water solutions were diluted 1:3 with acetonitrile and then sealed in vials for injection. 6 μL of the water acetonitrile solutions were injected onto a 2×50 mm Phenyl derived HPLC column (3 μm) and eluted with a gradient from 20% acetonitrile to 100% acetonitrile over 4 minutes at a flow rate of 500 μL/minute.

[2] = Solubility remark on the test substance; format: physicochemical; conditions: compared with the other tetracycline test substances, 20 mg/ml solution or suspension
[3] = tested on: human retinal pigment epithelium (RPE) cells; assay: Degradation of lipofuscin in human RPE cells (micrographs after one week); format: cell-based; conditions: one week incubation
Experimental: To explore the role of the reactive chemical species the human retinal pigment epithelium (RPE) cells were treated with the super oxide anion donor (SAD) soraprazan ((7R,8R,9R)-2,3-Dimethyl-8-hydroxy-7-ethoxy-9-phenyl-7,8,9,10-tetrahydro-imidazo-[1,2-h][1,7]-naphthyridin)—a member of the THPE family—either alone or in combination with a known radical oxygen scavenger, cardioxane.
After growing the hRPE-cells to confluence, the test compounds were added to seven cell cultures and the cells were incubated at 37° C. and 5% CO2. The SAD was added to the cell cultures in a concentration of 50 μg/ml either alone or in combination with cardioxane in a concentration of 10 μM, 50 μM or 100 μM. Additionally, three cell cultures were incubated only with cardioxane in a concentration of 10 μM, 50 μM or 100 μM. As control, one cell culture was grown without test compounds.
After one week of incubation micrographs of the differently incubated RPE cells were taken as shown in FIG. 2A to H. In the original images, lipofuscin in cells is visible as a yellow-gold-orange fluorescent structure, before a blue background. In the grey scale reproduction in FIG. 2 the yellow-gold-orange structure appear light grey (yellow) or dark grey (gold-orange) before a grey background. Areas of degradation of lipofuscin in the hRPE cells appears as bright blue to whitish structures which appear white in the in the grey scale reproduction and are circled in FIG. 2A.
The bright blue structures are only observed in the experimental set up with SAD alone (FIG. 2A).

melanin A2E particles = assay: Assay for binding to A2E melanin particles; design: species or system S. officinalis; conditions: FIG. 3A; 37° C., 4 h
Experimental: To study the binding of A2E to melanin, a suspension of 2 mg/ml natural melanin (S. officinalis) is prepared in PBS, pH 7.4. The melanin suspension is brought to 37° C. and sonicated for 15 min to form a uniform suspension. The melanin suspension (0.75 ml) is measured in aliquots into glass test tubes (12×75 mm) under continuous shaking to avoid sedimentation. The solution of A2E (0.75 ml) is added to the above-mentioned melanin aliquots, and the tubes will be incubated in a shaker incubator at 37° C. and 300 rpm for 4 h.
Controls are prepared by incubating A2E in the absence of melanin in incubation medium and by incubating melanin without A2E. Compounds are added to melanin suspension from stock solutions. After incubation, the suspensions are centrifuged at 13,000 rpm for 15 min at room temperature to remove the melanin granules. The supernatant is collected, diluted with acetonitrile and analyzed by an LC-MS/MS method to determine the concentration of […] in the supernatant. The kinetic parameters of binding study, i.e., maximal binding capacity (rmax) and the binding affinity (k) are determined for A2E according to the previously reported method (Cheruvu et al., 2008).
A high percentage of soraprazan and demethoxysoraprazan—about 46% and about 53%, respectively—are found bound to the melanin A2E particles.

[4] = tested on: HuRPE, RPE cells isolated from human donor eyes that contain melanin and lipofuscin; assay: Cellular verteporfin uptake in HuRPE cells; format: in vitro ADME; conditions: for Verteporfin in the cells after incubation: medium with 278 nM Verteporfin
Experimental: (§1) For testing factors influencing the cellular uptake of verteporfin to two cell types used:
HuRPE, RPE cells isolated from human donor eyes that contain melanin and lipofuscin
(§2) The cells were treated with 200 μl of a culture medium that contained 278 nM Verteporfin for the indicated time, the culture medium was discarded, the cells trypsinized, resuspended in 500 μl medium and counted.

[5] = In vitro (cell-free) degradation of A2E in aqueous solution, LCMS; format: biochemical; conditions: A2E 20 μM + verteporfin 25 μM; for A2E (% control): control = A2E non-illuminated
Experimental: The degradation of N-retinylidene-N-retinylethanolamine (A2E)—component of lipofuscin—in an aqueous solution water was measured in the presence of potential degradation mediators and light illumination.
In a cell-free assay, A2E was dissolved in deionized H2O in a concentration of 20 μM and the solution was divided into two parts. To one part of the A2E solution verteporfin was added in an amount of 25 μM. […]
The amounts of A2E and its epoxides (A2E+O, A2E+2O) remaining were quantified by combined liquid chromatography and mass spectroscopy (LCMS) using the transitions indicated in Table 1.

[6] = tested on: ARPE-19, a human RPE cell line that lacks melanin and lipofuscin; assay: Cellular verteporfin uptake in ARPE-19 cells; format: in vitro ADME; conditions: for Verteporfin in the cells after incubation: medium with 278 nM Verteporfin
Experimental: as §1
ARPE-19, a human RPE cell line that lacks melanin and lipofuscin
as §2

Abca4 (−/−) mice [7] = assay: Verteporfin injection into the vitreous of Abca4 (−/−) mice, micrographs of semi-thin sections; format: in vivo; conditions: 2 μl intravitreal, 12 month old mice, four weeks after injection, normal daylight
Experimental: 2 μl of a Verteporfin solution were injected into the vitreous of eyes from Abca4 (−/−) mice (12 month old) which lack the Abca4 transporter in the disk membranes of photoreceptors. Four weeks after injection the eyes of the mice were enucleated, embedded into the epoxy resin Epon™ and cut into semi-thin sections. As a control eyes of age-matched untreated mice lacking the Abca4 transporter were prepared in the same way. […] The RPE cell layer is marked by arrows in the Figure. Comparing the micrographs of the semi-thin section of eyes of untreated (FIG. 5a) and treated (FIG. 5b) mice the cytoplasm of the RPE cells of untreated mice appears much denser due to the targeting of confluent lipofuscin components. […] In treated eyes predominately melanin granules remained in the cytoplasm of RPE cells.

[8] = tested on: patient with putative dry AMD; assay: Clinical use of the photosensitizer to treat AMD, blue light laser retinal fluorescence; format: in vivo; conditions: intravenous 6 mg/m^2 or ca 4 μg intravitreal; days 7, 14 and 28 versus pre-treatment
Experimental: A patient with putative dry AMD is examined and baseline retinal fluorescence is determined using the blue laser imaging device (Heidelberg engineering). The patient is subject to an intravenous dose of 6 mg/m^2 verteporf in by means of infusion of 30 ml over 10 minutes. An alternative to intravenous application is the direct intravitreal application of verteporf in. In this case, ca 4 μg of verteporfin is administered to an affected single eye. Fluorescence after 1, 2 and 4 weeks is compared with fluorescence at baseline. The eyes are treated alternately.
In the standard verteporfin treatment, fifteen minutes after the start of the infusion, a laser light at 689 nm delivered 50 J/cm^2 by application of an intensity of 600 mW/cm^2 over 83 seconds using a spot size with a diameter 1000 μm. […] After administration of verteporfin to a patient an exposure of the eyes of the patient to mild indoor light of about 500 lux. Alternatively, low filtering sunglasses can be used as a means to maintain an exposure of the eyes of the patient to 500 lux when outdoors. The exposure should be maintained for a period of at least 6 h per day.
Blue light laser retinal fluorescence is measured at days 7, 14 and 28 after treatment and compared with pre-treatment values. Specific reductions of retinal fluorescence>1-20% are on post-treatment examination. […]

[9] = tetracycline antibiotics, intravitreal 2 μl of 20 mg/ml
[10] = amino acids or metabolites, intravitreal 2 μl of 40 mg/ml
[11] = dyes and porphyrins, intravitreal 2 μl of 20 mg/ml
[12] = quinolones, intravitreal 2 μl of 20 mg/ml
[13] = permeability agents, intravitreal 2 μl of 40 mg/ml or concentration as indicated in the table
[14] = redox active and chelating protein, intravitreal 2 μl of 20 mg/ml
[15] = dyes and porphyrins, intravitreal 2 μl of 2 mg/mL

CN(C)[C@@H]1C(O)=C(C(N)=O)C(=O)[C@@]2(O)C(O)=C3C(=O)c4c(O)ccc(Cl)c4[C@@H](O)[C@H]3C[C@@H]12 [Demeclocycline]
response vs control in vivo at 20000 µg/mL (Abca4 (−/−) mice [1]; [9]): 89%
Concentration A2E (μM) in the treated eye (Abca4 (−/−) mice [1]; [9]): 37 µM
Solubility [2]: notably less soluble

Cc1cc2nc3c(=O)[nH]c(=O)nc-3n(C[C@H](O)[C@H](O)[C@H](O)CO)c2cc1C [Riboflavin]
response vs control in vivo at 40000 µg/mL (Abca4 (−/−) mice [1]; [10]): 91%
Concentration A2E (μM) in the treated eye (Abca4 (−/−) mice [1]; [10]): 19 µM

O=C([O-])c1c(Cl)c(Cl)c(Cl)c(Cl)c1-c1c2cc(I)c(=O)c(I)c-2oc2c(I)c([O-])c(I)cc12.[Na+].[Na+] [Rose bengal]
% of A2E relative to age matched untreated (Abca4 (−/−) mice [1]; [11]): 85%
Concentration A2E (μM) in the treated eye (Abca4 (−/−) mice [1]; [11]): 16 µM

C[C@@H]1CN(c2c(F)c(N)c3c(=O)c(C(=O)O)cn(C4CC4)c3c2F)C[C@H](C)N1 [Sparfloxacin]
response vs control in vivo at 20000 µg/mL (Abca4 (−/−) mice [1]; [12]): 99%
Concentration A2E (μM) in the treated eye (Abca4 (−/−) mice [1]; [12]): 36 µM

N[C@@H](Cc1c[nH]c2ccccc12)C(=O)O [Tryptophan]
response vs control in vivo at 40000 µg/mL (Abca4 (−/−) mice [1]; [10]): 66%
Concentration A2E (μM) in the treated eye (Abca4 (−/−) mice [1]; [10]): 13 µM

C[C@@H](CN1CC(=O)NC(=O)C1)N1CC(=O)NC(=O)C1 [cardioxane]
Effect on the lipofuscin degradation seen with SAD ([3]; cardioxane 10, 50 or 100 μM added to SAD 50 μg/ml): abolishes the degradation of lipofuscin
Degradation / removal of lipofuscin in hRPE cells ([3]; test compound alone (SAD 50 μg/ml; cardioxane 10, 50 or 100 μM)): do not show any degradation of lipofuscin

Cyclodextrin
% of A2E relative to age matched untreated (Abca4 (−/−) mice [1]; [13]): 83%
Concentration A2E (μM) in the treated eye (Abca4 (−/−) mice [1]; [13]): 20 µM

Cytochrome C: redox active electron carrier protein used as a model peroxidase
% of A2E relative to age matched untreated (Abca4 (−/−) mice [1]; [14]): 81%
Concentration A2E (μM) in the treated eye (Abca4 (−/−) mice [1]; [14]): 18 µM

R/S-demethoxysoraprazan
Proportion of compound bound to the melanin A2E particles after incubation (melanin A2E particles): bind to the A2E melanin particles although to a lower percentage

Transferrin (apo): protein capable of binding iron with high affinity
% of A2E relative to age matched untreated (Abca4 (−/−) mice [1]; [14]): 82%
Concentration A2E (μM) in the treated eye (Abca4 (−/−) mice [1]; [14]): 15 µM

demethoxysoraprazan
Proportion of compound bound to the melanin A2E particles after incubation (melanin A2E particles): about 53%

verteporfin
Verteporfin in the cells after incubation ([4]; HuRPE, 1 h): 339 nM
Verteporfin in the cells after incubation ([4]; HuRPE, 18 h): 1206 nM
Increase of verteporfin concentration in the cells after 18 h ([4]; HuRPE, 18 h versus 1 h): about four-fold
Concentration of verteporfin in HuRPE compared to ARPE-19 ([4]; after 1 h of incubation): more than two-fold
A2E ([5]; 689 nm, 83 s): 14.338 µM
A2E (% control) ([5]; 689 nm, 83 s): 44 % control
A2E ([5]; non-illuminated, 5 min): 28.864 µM
A2E (% control) ([5]; non-illuminated, 5 min): 89 % control
A2E ([5]; white light, 5 min): 1.295 µM
A2E (% control) ([5]; white light, 5 min): 4 % control
Proportion of compound bound to the melanin A2E particles after incubation (melanin A2E particles): bind to the A2E melanin particles although to a lower percentage
% of A2E relative to age matched untreated (Abca4 (−/−) mice [1]; [15]): 90%
Concentration A2E (μM) in the treated eye (Abca4 (−/−) mice [1]; [15]): 27 µM
Verteporfin in the cells after incubation ([6]; ARPE-19, 1 h): 159 nM
Verteporfin in the cells after incubation ([6]; ARPE-19, 18 h): 351 nM
Increase of verteporfin concentration in the cells after 18 h ([6]; ARPE-19, 18 h versus 1 h): about two-fold
Removal of lipofuscin from the cytoplasm of RPE cells (Abca4 (−/−) mice [7]): substantial amounts of lipofuscin and melanolipofuscin were removed from the cytoplasm of RPE cells
Specific reductions of retinal fluorescence [8]: 1-20%
